Reference: US11655253B2, “CBP/catenin signaling pathway inhibitors and uses thereof” (3+2 Pharma, LLC, priority 2020, dated 2023)
Entries after “also recorded” stand apart in the source; their conditions may differ. One block for each molecule: values may come before it.

Experiments:
[1] = system: NC/Nga mice atopic dermatitis model; assay: NC/Nga mouse model of atopic dermatitis; type: in vivo; details: for dermatitis scores compared to vehicle control / TEWL (transepidermal water loss) compared to vehicle control: topical once daily Day 0-13; for TEWL (transepidermal water loss) compared to vehicle control: day 14; for mean body weight versus Vehicle group: any day during the treatment period
Experimental: NC/Nga mice (female) were obtained from CHARLES RIVER LABORATORIES JAPAN INC. Mice were randomized into […] of 8 mice on Day 0 based on their body weight and dermatitis score. Eight NC/Nga mice were topically administered test compound-containing [3+2]-121A (compound 34) ointment (in a volume of 100 mg) once daily from Day 0 to Day 13, or vehicle control (hydrophilic petrolatum).
Representative test substance [3+2]-121A was formulated in hydrophilic petrolatum at low (100 uM) and high (500 uM) dosages (referred to in the study as [3+2]-121A and [3+2]-121B, respectively). 7-week-old female NC/Nga mice were used. The first induction of atopic dermatitis was performed three weeks before compound administration, for which the mice were shaved of hair on their backs and behind the ears with a clipper and a shaver. Then the mice had their hair removed completely with a depilatory agent (Epilat™, Kracie Home Products, Ltd.) before 100 mg of Biostir AD® ointment was applied to the shaved dorsal skin and both surfaces of each ear evenly with a plastic spoon. The second induction of atopic dermatitis was performed subsequently. The mice were shaved of hair on their backs and behind the ears, then 150 μl of 4% sodium lauryl sulfate solution was applied to the back and behind the ears with a plastic spoon. After this, it was dried with a hair dryer (cold air) and then left to dry naturally for about 1 to 2 hours. 100 mg of Biostir AD® ointment was applied to the shaved dorsal skin and both surfaces of each ear evenly with a plastic spoon. This procedure was repeated twice a week for three weeks. Twenty-four atopic dermatitis model mice were sorted into 3 groups of 8 mice based on their body weight and dermatitis severity score on the morning at Day 0. Vehicle control (hydrophilic petrolatum), [3+2]-121A or [3+2]-121B was administered topically in a volume of 100 mg once daily from Day 0 to Day 13. Body weight and food consumption were measured once a week at Day 0, 7 and 14. The severity of dermatitis was evaluated at Day 0, 3, 7, 10 and 14. The development of 1) erythema/hemorrhage, 2) scarring/dryness, 3) edema, 4) excoriation/erosion were scored as 0 (none), 1 (mild), 2 (moderate) and 3 (severe). The sum of the individual scores was taken as the dermatitis score. The TEWL was evaluated at Day 0 and at Day 14 after administration. Histological analyses were performed on lower neck dorsal skin and auricle that were fixed in 10% neutral formalin, embedded in paraffin and sectioned at 3-4 μm sections and stained with hematoxylin-eosin using Carrazzi's hematoxylin solution. For analysis of the skin area, bright field images of HE-stained sections were randomly captured using a digital camera (DS-Fi3; Nikon) at 2 and 4-fold magnification. Statistical analyses were performed using Prism Software 6 (GraphPad Software, USA). Statistical analyses were performed using Dunnett's Comparison Test. Comparisons were made between the following groups; Group 1 (Vehicle) vs. Group 2 ([3+2]-121A) and Group 3 ([3+2]-121B). P values <0.05 were considered statistically significant. Results were expressed as mean±SD.

[2] = system: bleomycin induced model of IPF in mice; assay: Bleomycin induced mouse model of idiopathic pulmonary fibrosis; type: in vivo; details: for overall survival and Ashcroft scoring versus historical control data for pirfenidone and nintedanib: from day 7 after bleomycin for 2 weeks; for extracellular collagen deposition (Masson's trichrome blue staining) compared to bleomycin saline treated historical control / survival: all treatment groups; for survival: to day 21; for Ashcroft score / Left lung weight / Post-caval lobe weight / Body weight: n = 3, mean +/− SD; for Body weight: day of sacrifice
From the text: Bleomycin induced model of IPF.
Results. […] FIGS. 8A-8E are as follows: historical bleomycin saline treated control (8A, “ID:103”); [3+2]-120A low dose (8B, “ID:102”); [3+2]-120A high dose (8C, “ID:201”); [[3+2]-120B low dose (8D, ID:302”); and [3+2]-120B high dose (8E, ID:401”).

[3] = system: memory CD4+ T-cells in SIVmac251-infected RMs; details: ART-suppressed SIVmac251-infected RMs; cited from earlier work
[4] = system: patients with HCV cirrhosis; details: intravenous, cited from earlier work
[5] = system: STAM mouse model of NASH-HCC; assay: STAM mouse model of NASH-HCC; type: in vivo, mice; details: after 4 weeks of treatment, vehicle 5 out of 8
Experimental: In the vehicle control treated group only 5 out of 8 mice survived, whereas in the 3+2]-120A at 100 mg/kg/day (A-low) and 400 mg/kg/day (A-high), 7 out of 8 and 8 out of 8 mice survived respectively.

β-catenin binding to CBP = molecular target: T1, β-catenin binding to CBP (Homo sapiens, UniProt Q92793); assay: Co-immunoprecipitation assay in SW480 cells, CBP IP; type: cell-based; details: 10 μM
T1 construct: endogenous in cells; host or cells: SW480 colorectal cancer cells
Experimental: (§1) FIG. 4A and FIG. 4B, show, according to further non-limiting aspects of the present invention, a co-immunoprecipitation assay that was performed in SW480 cells as previously described (Emami K. et al. PNAS USA, 2004 Aug. 24; 101 (34): 12682-7) to further confirm that the positive control compound ICG-001 and [3+2]-117 selectively disrupt β-catenin binding to CBP (FIG. 4A), while enhancing the binding of β-catenin to p300 (FIG. 4B). Immunoprecipitation of β-catenin with CBP was inhibited by ICG-001 at 10 μM ([…]) and by [3+2]-117 at 500 nM. […] Quantification of the immunoblotting data based upon pixelation is shown below the immunoblots.

[6] = system: β-catenin binding to p300; assay: Co-immunoprecipitation assay in SW480 cells, p300 IP; type: cell-based
Experimental: as §1

[7] = high dosage group (400 mg/kg/day p.o.)
[8] = both dosage groups (100 and 400 mg/kg/day p.o.)

T1 sequence (Q92793 whole entry): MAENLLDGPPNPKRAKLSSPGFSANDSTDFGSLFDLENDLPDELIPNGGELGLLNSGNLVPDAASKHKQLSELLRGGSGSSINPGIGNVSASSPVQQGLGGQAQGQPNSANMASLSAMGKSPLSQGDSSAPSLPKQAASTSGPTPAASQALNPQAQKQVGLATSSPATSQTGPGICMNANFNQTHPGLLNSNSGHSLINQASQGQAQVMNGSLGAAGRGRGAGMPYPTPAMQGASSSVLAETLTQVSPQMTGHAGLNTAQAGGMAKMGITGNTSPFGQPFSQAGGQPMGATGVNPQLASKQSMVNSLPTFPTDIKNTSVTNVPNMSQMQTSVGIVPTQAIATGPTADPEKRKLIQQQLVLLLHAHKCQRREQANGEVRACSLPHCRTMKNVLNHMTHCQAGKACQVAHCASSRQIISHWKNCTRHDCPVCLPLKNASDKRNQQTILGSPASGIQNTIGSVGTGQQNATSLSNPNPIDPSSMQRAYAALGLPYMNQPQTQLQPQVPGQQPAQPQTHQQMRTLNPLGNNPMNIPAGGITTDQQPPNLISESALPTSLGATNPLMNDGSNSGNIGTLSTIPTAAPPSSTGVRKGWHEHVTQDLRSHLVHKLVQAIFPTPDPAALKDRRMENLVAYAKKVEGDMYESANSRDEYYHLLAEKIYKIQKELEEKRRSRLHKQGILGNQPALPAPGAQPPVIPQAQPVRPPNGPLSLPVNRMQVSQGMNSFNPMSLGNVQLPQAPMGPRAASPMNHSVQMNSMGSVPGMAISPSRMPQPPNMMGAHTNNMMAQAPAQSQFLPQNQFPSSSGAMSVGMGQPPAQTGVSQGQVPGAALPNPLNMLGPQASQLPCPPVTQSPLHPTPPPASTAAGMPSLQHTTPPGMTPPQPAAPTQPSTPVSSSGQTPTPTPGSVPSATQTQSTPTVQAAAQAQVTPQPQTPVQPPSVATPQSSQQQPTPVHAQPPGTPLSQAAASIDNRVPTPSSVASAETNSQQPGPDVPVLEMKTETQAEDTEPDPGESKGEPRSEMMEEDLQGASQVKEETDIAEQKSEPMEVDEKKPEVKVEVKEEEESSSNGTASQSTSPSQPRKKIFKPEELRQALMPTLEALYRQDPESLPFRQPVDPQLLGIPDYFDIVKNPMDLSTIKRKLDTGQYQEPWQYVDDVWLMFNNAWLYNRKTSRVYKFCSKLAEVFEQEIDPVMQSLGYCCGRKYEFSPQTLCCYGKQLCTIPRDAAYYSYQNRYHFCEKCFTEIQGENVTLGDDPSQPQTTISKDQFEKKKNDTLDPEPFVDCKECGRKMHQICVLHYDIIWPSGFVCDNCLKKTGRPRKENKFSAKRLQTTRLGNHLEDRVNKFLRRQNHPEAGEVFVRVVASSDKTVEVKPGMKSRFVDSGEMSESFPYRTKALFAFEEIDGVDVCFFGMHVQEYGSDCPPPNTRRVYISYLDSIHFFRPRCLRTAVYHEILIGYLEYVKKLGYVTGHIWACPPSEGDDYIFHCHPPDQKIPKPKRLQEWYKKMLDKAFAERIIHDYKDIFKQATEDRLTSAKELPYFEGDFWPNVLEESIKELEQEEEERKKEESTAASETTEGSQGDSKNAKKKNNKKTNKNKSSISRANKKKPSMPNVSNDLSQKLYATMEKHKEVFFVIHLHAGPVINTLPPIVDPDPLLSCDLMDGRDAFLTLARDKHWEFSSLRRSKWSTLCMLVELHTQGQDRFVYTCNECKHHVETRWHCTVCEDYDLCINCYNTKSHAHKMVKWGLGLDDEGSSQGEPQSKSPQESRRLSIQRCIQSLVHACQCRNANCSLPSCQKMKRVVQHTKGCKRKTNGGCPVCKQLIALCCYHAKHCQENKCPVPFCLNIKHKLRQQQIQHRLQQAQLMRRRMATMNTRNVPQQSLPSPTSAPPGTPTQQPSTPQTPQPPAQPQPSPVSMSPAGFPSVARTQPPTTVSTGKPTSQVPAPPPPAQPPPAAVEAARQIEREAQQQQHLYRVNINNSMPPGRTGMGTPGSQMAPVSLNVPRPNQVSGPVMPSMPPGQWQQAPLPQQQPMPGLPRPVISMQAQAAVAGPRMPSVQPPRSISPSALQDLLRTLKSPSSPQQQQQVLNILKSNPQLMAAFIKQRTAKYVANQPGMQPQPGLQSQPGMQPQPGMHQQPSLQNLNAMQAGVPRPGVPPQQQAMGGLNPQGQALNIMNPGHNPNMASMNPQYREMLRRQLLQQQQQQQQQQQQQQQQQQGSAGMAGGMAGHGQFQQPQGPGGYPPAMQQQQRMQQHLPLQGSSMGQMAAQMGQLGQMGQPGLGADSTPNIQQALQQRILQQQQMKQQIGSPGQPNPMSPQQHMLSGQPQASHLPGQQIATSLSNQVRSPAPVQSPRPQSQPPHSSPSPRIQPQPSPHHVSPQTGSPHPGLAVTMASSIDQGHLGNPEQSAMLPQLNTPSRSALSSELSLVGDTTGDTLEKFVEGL

food consumption per mouse versus Vehicle group ([1]; low (100 uM)): no significant differences
Structure (SMILES): CCCCCCCCCCCC(=O)Oc1ccc(C[C@H]2C(=O)N(Cc3cccc4ccccc34)C[C@H]3N2C(=O)CN(Cc2cc(-c4ccccc4)no2)N3C(=O)NCc2ccccc2)cc1 [[3+2]-121A]
dermatitis scores compared to vehicle control ([1]; high (500 uM) ointment): significantly decreased
TEWL (transepidermal water loss) compared to vehicle control ([1]; high (500 uM) ointment): significantly decreased
inflammation and inflammatory cell influx (histological analysis) ([1]; low (100 uM)): significant reduction
dermatitis scores compared to vehicle control ([1]; low (100 uM) ointment): significantly decreased
TEWL (transepidermal water loss) compared to vehicle control ([1]; low (100 uM) ointment): significantly decreased; also recorded: significant decrease
dermatitis severity score on the back compared with Vehicle group ([1]; low (100 uM), Days 10 and 14): significant decrease
mean body weight versus Vehicle group ([1]; low (100 uM)): no significant differences
total dermatitis severity score compared with Vehicle control group ([1]; low (100 uM), primarily on the back, Days 10 and 14): significant decrease

Structure (SMILES): CCOC(=O)CNC(=O)CNC(=O)Oc1ccc(C[C@H]2C(=O)N(Cc3cccc4ncccc34)C[C@H]3N2C(=O)CN(Cc2cc(-c4ccccn4)no2)N3C(=O)NCc2ccccc2)cc1 [[3+2]-120B, ethyl 2-(2-((4-(((6S,9aS)-1-(benzylcarbamoyl)-4,7-dioxo-2-((3-(pyridin-2-yl)isoxazol-5-yl)methyl)-8-(quinolin-5-ylmethyl)octahydro-1H-pyrazino[2,1-c][1,2,4]triazin-6-yl)methyl)phenoxy)carbonylamino)acetamido)acetate]
overall survival and Ashcroft scoring versus historical control data for pirfenidone and nintedanib ([2]; 400 mg/kg/day p.o.): compared favorably
extracellular collagen deposition (Masson's trichrome blue staining) compared to bleomycin saline treated historical control [2]: significant reduction
survival [2]: all mice survived
Ashcroft scores [2, 7]: significant decrease
lung weights [2, 7]: significant decrease
weight gain [2, 7]: significant increase
Ashcroft score ([2]; high dose (400 mg/kg/day p.o.)): 2.1 +/− 0.7
Left lung weight ([2]; high dose (400 mg/kg/day p.o.)): 65 ± 13 mg
Post-caval lobe weight ([2]; high dose (400 mg/kg/day p.o.)): 21 ± 6 mg
Body weight ([2]; high dose (400 mg/kg/day p.o.)): 19.5 ± 1.6 g
Ashcroft score ([2]; low dose p.o.): 3.9 +/− 1.4
Left lung weight ([2]; low dose p.o.): 77 ± 15 mg
Post-caval lobe weight ([2]; low dose p.o.): 39 ± 17 mg
Body weight ([2]; low dose p.o.): 15.1 ± 3.8 g

Structure (SMILES): C[C@H]1[C@H]2N(C(=O)CN(C)N2C(=O)NCc2ccccc2)[C@@H](Cc2ccc(OP(=O)(O)O)cc2)C(=O)N1Cc1cccc2cccnc12 [PRI-724]
proliferation of T memory stem cells (SCM) and central memory T-cells (CM) [3]: decrease
safety ([4]; 10 and 40 mg/m^2/day for 12 weeks (1 week on and 1 week off)): safe
plasma exposure of the drug ([4]; 10 and 40 mg/m^2/day for 12 weeks): dose-dependent
liver histology and Child Pugh scores ([4]; 10 and 40 mg/m^2/day for 12 weeks, in several patients): improvement

Structure (SMILES): CS(=O)(=O)O.O=C1[C@H](Cc2ccc(O)cc2)N2C(=O)CN(Cc3cc(-c4ccccn4)no3)N(C(=O)NCc3ccccc3)[C@H]2CN1Cc1cccc2ncccc12 [[3+2]-120A]
mice survived ([5]; 100 mg/kg/day p.o. (A-low)): 7 out of 8
mice survived ([5]; 400 mg/kg/day p.o. (A-high)): 8 out of 8
overall survival and Ashcroft scoring versus historical control data for pirfenidone and nintedanib ([2]; 100 mg/kg/day p.o.): compared favorably
overall survival and Ashcroft scoring versus historical control data for pirfenidone and nintedanib ([2]; 400 mg/kg/day p.o.): compared favorably
extracellular collagen deposition (Masson's trichrome blue staining) compared to bleomycin saline treated historical control [2]: significant reduction
survival [2]: all mice survived
Ashcroft scores [2, 8]: significant decrease
lung weights [2, 8]: significant decrease
weight gain [2, 8]: significant increase
Ashcroft score ([2]; high dose (400 mg/kg/day p.o.)): 2.5 +/− 2.0
Left lung weight ([2]; high dose (400 mg/kg/day p.o.)): 66 ± 33 mg
Post-caval lobe weight ([2]; high dose (400 mg/kg/day p.o.)): 25 ± 18 mg
Body weight ([2]; high dose (400 mg/kg/day p.o.)): 16.9 ± 3.8 g
Ashcroft score ([2]; low dose p.o.): 2.2 +/− 1.7
Left lung weight ([2]; low dose p.o.): 65 ± 19 mg
Post-caval lobe weight ([2]; low dose p.o.): 21 ± 9 mg
Body weight ([2]; low dose p.o.): 18.2 ± 0.7 g

Structure (SMILES): O=C1[C@H](Cc2ccc(O)cc2)N2C(=O)CCN(C(=O)NCc3ccccc3)[C@H]2CN1Cc1cccc2ccccc12 [ICG-001]
Immunoprecipitation of β-catenin with CBP (β-catenin binding to CBP): inhibited
minimal interaction between β-catenin and p300 [6]: not blocked
amount of β-catenin co-immunoprecipitated with p300 ([6]; 10 μM): slightly increases

food consumption per mouse versus Vehicle group ([1]; high (500 uM)): no significant differences
Structure (SMILES): CCCCCCCCCCCC(=O)Oc1ccc(C[C@H]2C(=O)N(Cc3cccc4ccccc34)C[C@H]3N2C(=O)CN(Cc2cc(-c4ccccc4)no2)N3C(=O)NCc2ccccc2)cc1 [[3+2]-121B]
inflammation and inflammatory cell influx (histological analysis) ([1]; high (500 uM)): significant reduction
TEWL (transepidermal water loss) compared to vehicle control ([1]; high (500 uM) ointment, listed as 121B): significant decrease
mean body weight versus Vehicle group ([1]; high (500 uM)): no significant differences
